Experiment [1] addresses T1, human Nectin-4 (Homo sapiens, UniProt Q96NY8).
T1 construct: purchased R&D Systems 2659-N4-050
T1 sequence (Q96NY8 32-349 limits assumed): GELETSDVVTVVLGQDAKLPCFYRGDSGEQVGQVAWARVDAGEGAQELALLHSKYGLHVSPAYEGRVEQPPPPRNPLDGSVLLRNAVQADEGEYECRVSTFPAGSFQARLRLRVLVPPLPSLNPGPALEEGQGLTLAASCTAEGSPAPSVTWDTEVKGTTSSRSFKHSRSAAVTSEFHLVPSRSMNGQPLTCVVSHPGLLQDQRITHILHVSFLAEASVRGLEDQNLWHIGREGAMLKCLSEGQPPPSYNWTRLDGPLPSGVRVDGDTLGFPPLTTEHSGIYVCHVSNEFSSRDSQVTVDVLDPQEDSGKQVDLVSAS
Description: SPR affinity for recombinant human Nectin-4. To be noted: Biacore T200, CM5 chip, 25°C, His-tagged recombinant protein captured, 1:1 kinetics fit, n = 3. Format: binding. As to the method: (§1) The affinity of AJ647 for human and mouse Nectin-4 recombinant proteins was evaluated by SPR. The experiments were conducted using a Biacore T200 instrument with a CM5 chip at 25°C. The ligands used were His-tagged human Nectin-4 (R&D Systems, catalog no. 2659-N4-050, 44 kDa, 0.2 mg/ml stock concentration) and mouse Nectin-4 proteins (R&D Systems, catalog no. 3116-N4-050, 45 kDa, 0.2 mg/ml stock concentration), which were immobilized onto the CM5 chip. AJ647 (3057.5 Da, 10 mM stock concentration) was used as the analyte, which flowed over the ligand-immobilized surface. FC2 and FC4 was used as the experimental flow cell, while FC1 and FC3 served as the reference. An anti-His antibody (1 mg/ml stock concentration) was immobilized on all flow cells using standard amine coupling chemistry. […] Human Nectin-4 was captured onto FC2 at a level of ~600 RU, with a 1:20 dilution and 10 μg/ml diluted concentration in PBS-P. Mouse Nectin-4 was captured onto FC4 at a level of 600 RU, with a 1:20 dilution and 10 μg/ml diluted concentration in PBS-P. The theoretical maximum response (Rmax ) values were calculated on the basis of the captured response values (table S1), assuming a 1:1 interaction mechanism. […] All association and dissociation kinetics were evaluated by 1:1 kinetics model fitting.

The target in experiment [2] is T2, mouse Nectin-4 (Mus musculus, UniProt Q8R007).
T2 construct: purchased R&D Systems 3116-N4-050
T2 sequence (Q8R007 31-347 limits assumed): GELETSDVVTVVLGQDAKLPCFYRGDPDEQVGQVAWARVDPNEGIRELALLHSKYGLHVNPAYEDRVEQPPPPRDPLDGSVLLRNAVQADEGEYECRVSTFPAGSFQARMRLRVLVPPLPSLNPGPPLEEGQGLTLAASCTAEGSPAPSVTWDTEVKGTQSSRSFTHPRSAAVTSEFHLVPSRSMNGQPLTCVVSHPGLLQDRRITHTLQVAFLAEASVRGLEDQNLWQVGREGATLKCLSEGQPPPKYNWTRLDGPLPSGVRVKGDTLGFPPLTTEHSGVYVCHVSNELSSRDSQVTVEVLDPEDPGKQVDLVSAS
Description: SPR affinity for recombinant mouse Nectin-4. The experiment is classed as binding. The note with it: Biacore T200, CM5 chip, 25°C, His-tagged recombinant protein captured, 1:1 kinetics fit, n = 3. As to the method:
as §1
(SPR reads the build-up and loss of mass on a sensor chip optically.)

Experiment [3] relates to HT1376 xenografts. Description: In vivo blocking of [^68Ga]AJ647 uptake by nonradioactive AJ647, PET. More on the design: species or system NSG mice. The note with it: nonradioactive AJ647 2 mg/kg pre-injected; PET-MR 60 min. As to the method: Mice with tumor volumes of ~100 to 150 mm^3 were injected with ~200 μCi [7.4 megabecquerels (MBq)] of [^68Ga]AJ647 in […] of 5% ethanol in saline intravenously and anesthetized under 2.5% isoflurane. PET-computed tomography (CT) images were acquired at 60 min after radiotracer injection at 5 min per bed in an ARGUS small-animal PET/CT scanner (Sedecal, Madrid, Spain) as described previously (n = 3, unless otherwise noted). PET-MR images were acquired on a simultaneous 7T Bruker PET-MR scanner. Dynamic imaging was conducted to evaluate the PK of [^68Ga]AJ647. [^68Ga]AJ647 was injected (with the help of a catheter) after mice were anesthetized under 2.5% isoflurane on the equipment bed. All PET data were reconstructed using the two-dimensional (2D) ordered subset expectation maximization algorithm and corrected for radioactive decay and dead times. The SUV values were calculated by finding %IA on the basis of a calibration factor obtained from a known radioactive quantity and then normalizing by mice weight. Amide software was used to derive SUV values by drawing the region of interest to closely fit tumors. […] For the change in accessible Nectin-4 following EV treatment, ΔSUV was calculated by subtracting baseline (pre-treatment) uptake from posttherapy uptake of [^68Ga]AJ647. TE was quantified by normalizing this change by initial SUV in the same subject controls. […]

Experiment [4] relates to bladder cancer cell lines. Description: In vitro blocking of [^68Ga]AJ647 uptake by nonradioactive AJ647. The experiment is classed as cell-based. To be noted: 2 μM nonradioactive AJ647 (0.2 nmol, blocking dose). As to the method:
In vitro binding of [^68Ga]AJ647 to T24, SCaBER, RT112, UC9, UC14, and HT1376 cells was determined by incubating 1 × 10^6 cells with ~1 μCi of [^68Ga]AJ647 for 30 min at 4°C. After incubation, cells were washed three times with ice-cold PBS containing 0.1% Tween 20 and counted on an automated gamma counter. All cell radioactivity uptake studies were performed in quadruplicate for each cell line and repeated three times.

The target of experiment [5] is T3, His-tagged mouse Nectin-4 (R&D Systems, catalog no. 3116-N4-050) (mouse, UniProt Q8R007 31-347).
T3 chain: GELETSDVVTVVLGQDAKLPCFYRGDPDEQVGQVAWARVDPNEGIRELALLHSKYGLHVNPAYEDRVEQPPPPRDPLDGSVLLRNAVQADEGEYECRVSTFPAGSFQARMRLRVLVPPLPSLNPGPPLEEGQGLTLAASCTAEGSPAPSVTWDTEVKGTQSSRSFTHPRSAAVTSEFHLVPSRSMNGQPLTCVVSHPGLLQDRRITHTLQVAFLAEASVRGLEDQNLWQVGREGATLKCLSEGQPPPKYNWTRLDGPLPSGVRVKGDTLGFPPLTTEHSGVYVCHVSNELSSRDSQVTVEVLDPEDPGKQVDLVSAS
Kind of experiment: SPR.

In experiment [6] the target is T4, His-tagged human Nectin-4 (R&D Systems, catalog no. 2659-N4-050) (human, UniProt Q96NY8 32-349).
T4 chain: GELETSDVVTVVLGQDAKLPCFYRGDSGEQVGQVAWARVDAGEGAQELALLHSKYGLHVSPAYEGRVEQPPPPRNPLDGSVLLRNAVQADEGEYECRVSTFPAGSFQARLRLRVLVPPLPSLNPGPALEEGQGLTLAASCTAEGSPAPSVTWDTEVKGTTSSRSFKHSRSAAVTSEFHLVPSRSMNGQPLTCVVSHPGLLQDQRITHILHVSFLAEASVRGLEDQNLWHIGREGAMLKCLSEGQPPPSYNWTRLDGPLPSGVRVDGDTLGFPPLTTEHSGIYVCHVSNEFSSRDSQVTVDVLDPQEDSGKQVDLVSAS
Description: SPR.

Starred links: 1 amine or outer side, 2 acyl side, 3 side chain; linkers in the order of their positions; H or OH if unused. Positions of bridges follow the written chain, without caps; N, C: chain ends. Non-standard residues stand in square brackets, D forms with d. Primed or numbered codes have the meaning given here. *: point of attachment. TATA = O=C(CC[*:1])N1CN(C(=O)CC[*:2])CN(C(=O)CC[*:3])C1; NOTA = O=C(O)CN1CCN(CC(=O)O)CCN(CC(=O)*)CC1; Hyp = O=C(O)[C@@H]1C[C@@H](O)CN1; hArg = N=C(N)NCCCC[C@H](N)C(=O)O; PEG12′ = not defined here; Nal = naphthylalanine

By Kd is commonly meant the constant that tells how readily two partners part at equilibrium. Broadly, the koff is the first-order rate constant of dissociation. Lower therefore signals a long-lived complex.

Regarding `CSCC[C@@H]1NC(=O)[C@@H]2CSCCC(=O)N3CN(CN(C3)C(=O)CCSC[C@H](NC(=O)CCOCCOCCOCCOCCOCCOCCOCCOCCOCCOCCOCCOCCNC(=O)CN3CCN(CC(=O)O)CCN(CC(=O)O)CC3)C(=O)N3CCC[C@H]3C(=O)N[C@@H](Cc3cccc4ccccc34)C(=O)N[C@@H](CC(=O)O)C(=O)N2)C(=O)CCSC[C@@H](C(N)=O)NC(=O)[C@H](Cc2c[nH]c3ccccc23)NC(=O)[C@@H]2C[C@@H](O)CN2C(=O)[C@@H]2CCCN2C(=O)[C@H]([C@@H](C)O)NC(=O)[C@H](CO)NC(=O)[C@H](Cc2c[nH]c3ccccc23)NC(=O)[C@@H](CC(=O)O)NC(=O)[C@H](CCCCNC(=N)N)NC1=O` [AJ647], the Kd in experiment [1] was 15 ± 10.1 nM; in experiment [2], 14.1 ± 3.4 nM. For the same molecule, the “effect on [^68Ga]AJ647 uptake in HT1376 xenografts” value in experiment [3] was “reduction in tracer uptake”. Further, in experiment [4], the “effect of co-incubation on radiotracer uptake” value is “significantly reduced radiotracer uptake”.

Turning to {NOTA-PEG12′}-CP[Nal]DCM[hArg]DWSTP[Hyp]WC-NH2 (linker 1-5-15 via TATA; not fully specified (residue 8)) [AJ647 (NOTA-PEG12 conjugate of the bicyclic peptide AJ632)], the figures for the koff in experiment [5] and in experiment [6] were 0.0101 s⁻¹ and 0.0106 s⁻¹, respectively.

Values taken from PMC12778052 (Science Advances, 2026).
